Laboratory results from PubChem BioAssay (NCI).
Where “and” joins values, the source holds several entries; their conditions need not be identical. Identical values can stand only once.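 1) Cells in 96-well plates. 2) Compound, 48 h, 5 concentrations. 3) Linear interpolation between surrounding doses. 4) Unreached endpoint = highest concentration. GI50 is the concentration that inhibits growth by half. TGI marks complete inhibition of growth.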

Tests used:
Assay in all cases: inhibition of tumour cell growth, NCI panel, 48 h
T-47D breast = test system: T-47D breast
MALME-3M melanoma = test system: MALME-3M melanoma
SNB-75 CNS = test system: SNB-75 CNS
UACC-257 melanoma = test system: UACC-257 melanoma
HS 578T breast = test system: HS 578T breast
U251 CNS = test system: U251 CNS
M14 melanoma = test system: M14 melanoma
NCI-H226 lung = test system: NCI-H226 lung
OVCAR-4 ovarian = test system: OVCAR-4 ovarian
SF-268 CNS = test system: SF-268 CNS

## O=Cc1ccc(N2CCN(c3ccc(C=O)cc3)CC2)cc1
T-47D breast
  GI50: 3.35 µM
  TGI: 32.6 µM
MALME-3M melanoma
  GI50: 0.565 µM
  TGI: > 100 µM
SNB-75 CNS
  GI50: > 100 µM
  TGI: > 100 µM
UACC-257 melanoma
  GI50: > 100 µM
  TGI: > 100 µM
HS 578T breast
  GI50: > 100 µM
  TGI: > 100 µM
U251 CNS
  GI50: > 100 µM
  TGI: > 100 µM
M14 melanoma
  GI50: > 100 µM
  TGI: > 100 µM
NCI-H226 lung
  GI50: 1.65 µM
  TGI: 4.12 µM
OVCAR-4 ovarian
  GI50: 5.68 µM
  TGI: > 100 µM
SF-268 CNS
  GI50: > 100 µM
  TGI: > 100 µM

## CCCOC(=O)C1C2CCC(O2)C1C(=O)O (stereo not given)
T-47D breast
  TGI: > 100 µM
MALME-3M melanoma
  TGI: > 100 µM
SNB-75 CNS
  TGI: > 100 µM
UACC-257 melanoma
  TGI: > 100 µM
HS 578T breast
  TGI: > 100 µM
U251 CNS
  TGI: > 100 µM
M14 melanoma
  TGI: > 100 µM
NCI-H226 lung
  TGI: > 100 µM
OVCAR-4 ovarian
  TGI: > 100 µM
SF-268 CNS
  TGI: > 100 µM

## CC1=C(N2CC2)C(=O)c2ccccc2C1=O
T-47D breast
  TGI: 28.7 µM
MALME-3M melanoma
  TGI: 2.65 µM
SNB-75 CNS
  TGI: 2.32 µM
UACC-257 melanoma
  TGI: 1.94 µM
HS 578T breast
  TGI: 4.89 µM
U251 CNS
  TGI: 10.3 µM
M14 melanoma
  TGI: 5.03 µM
NCI-H226 lung
  TGI: 6.21 µM
OVCAR-4 ovarian
  TGI: 7.36 µM
SF-268 CNS
  TGI: 5.14 µM

## COc1ccc2c(c1)/C(=N/OC(C)=O)c1c-2cnc2ccccc12
T-47D breast
  GI50: 19.9 µM
  TGI: 66.3 µM
MALME-3M melanoma
  GI50: 16.2 µM
  TGI: 39.1 µM
SNB-75 CNS
  GI50: 37.4 µM
  TGI: > 100 µM
UACC-257 melanoma
  GI50: 61.1 µM
  TGI: > 100 µM
HS 578T breast
  GI50: 39.8 µM
  TGI: > 100 µM
U251 CNS
  GI50: 19.3 µM
  TGI: 39.4 µM
M14 melanoma
  GI50: 29.6 µM
  TGI: > 100 µM
NCI-H226 lung
  GI50: 33.5 µM
  TGI: > 100 µM
OVCAR-4 ovarian
  GI50: 31.7 µM
  TGI: 83.6 µM
SF-268 CNS
  GI50: 24 µM
  TGI: 68.7 µM

## O=C1/C(=C\c2ccccc2)C2OCC=C3CN4CCC56c7ccccc7N1C5C2C3CC46 (stereo not given)
T-47D breast
  GI50: 64.8 µM
  TGI: > 100 µM
MALME-3M melanoma
  GI50: 4.67 µM
  TGI: 17.9 µM
SNB-75 CNS
  GI50: 14.7 µM
  TGI: > 100 µM
UACC-257 melanoma
  GI50: 2.16 µM
  TGI: 4.11 µM
HS 578T breast
  GI50: 62.5 µM
  TGI: > 100 µM
U251 CNS
  GI50: 13.1 µM
  TGI: > 100 µM
M14 melanoma
  GI50: 1.94 µM
  TGI: 3.72 µM
NCI-H226 lung
  GI50: 11.3 µM
  TGI: > 100 µM
OVCAR-4 ovarian
  GI50: > 100 µM
  TGI: > 100 µM
SF-268 CNS
  GI50: 79.3 µM
  TGI: > 100 µM

## NC(=O)c1ccc(N(C(N)=O)c2c(F)cccc2F)nc1-c1ccc(F)cc1F
T-47D breast
  GI50: > 100 µM
  TGI: > 100 µM
MALME-3M melanoma
  GI50: > 100 µM
  TGI: > 100 µM
SNB-75 CNS
  GI50: > 100 µM
  TGI: > 100 µM
UACC-257 melanoma
  GI50: > 100 µM
  TGI: > 100 µM
HS 578T breast
  GI50: > 100 µM
  TGI: > 100 µM
U251 CNS
  GI50: > 100 µM
  TGI: > 100 µM
M14 melanoma
  GI50: > 100 µM
  TGI: > 100 µM
NCI-H226 lung
  GI50: > 100 µM
  TGI: > 100 µM
OVCAR-4 ovarian
  GI50: > 100 µM
  TGI: > 100 µM
SF-268 CNS
  GI50: > 100 µM
  TGI: > 100 µM

## O=C(Nc1cccc(C(F)(F)F)c1)c1cc2ccccc2cc1O
T-47D breast
  GI50: 1.68 µM
  TGI: 58 µM
MALME-3M melanoma
  GI50: 1.15 µM
  TGI: 6.74 µM
SNB-75 CNS
  GI50: 2.25 µM
  TGI: > 39.7 µM
UACC-257 melanoma
  GI50: 2.97 µM
  TGI: > 24.7 µM
HS 578T breast
  GI50: 1.89 µM
  TGI: > 44 µM
U251 CNS
  GI50: 1.23 µM
  TGI: > 100 µM
M14 melanoma
  GI50: 3.26 µM
  TGI: 48.7 µM
NCI-H226 lung
  GI50: 2.22 µM
  TGI: > 100 µM
OVCAR-4 ovarian
  GI50: 2.04 µM
  TGI: > 71.1 µM
SF-268 CNS
  GI50: 2.7 µM
  TGI: > 100 µM

## CNC(c1ccncc1)C(NC)c1ccncc1 (stereo not given)
T-47D breast
  TGI: > 100 µM
MALME-3M melanoma
  TGI: > 100 µM
SNB-75 CNS
  TGI: > 100 µM
UACC-257 melanoma
  TGI: > 100 µM
HS 578T breast
  TGI: > 100 µM
U251 CNS
  TGI: > 100 µM
M14 melanoma
  TGI: > 100 µM
NCI-H226 lung
  TGI: > 100 µM
OVCAR-4 ovarian
  TGI: > 100 µM
SF-268 CNS
  TGI: > 100 µM

## CN(C(=O)CNC(=O)/C=C/c1cccc(Cl)c1)C1CCS(=O)(=O)CC1
T-47D breast
  GI50: 7.36 µM
  TGI: > 100 µM
MALME-3M melanoma
  GI50: 3.45 µM
  TGI: > 100 µM
SNB-75 CNS
  GI50: 3.02 µM
  TGI: > 100 µM
UACC-257 melanoma
  GI50: > 100 µM
  TGI: > 100 µM
HS 578T breast
  GI50: 90.4 µM
  TGI: > 100 µM
U251 CNS
  GI50: 39.5 µM
  TGI: > 100 µM
M14 melanoma
  GI50: 1.48 µM
  TGI: > 100 µM
NCI-H226 lung
  GI50: 1.02 µM
  TGI: > 100 µM
OVCAR-4 ovarian
  GI50: 5.9 µM
  TGI: > 100 µM
SF-268 CNS
  GI50: 65.1 µM
  TGI: > 100 µM

## CCN(CC)Cc1cc(Nc2c3ccccc3nc3cc(Cl)ccc23)ccc1O
T-47D breast
  GI50: 1.97 µM
  TGI: 4 µM
MALME-3M melanoma
  GI50: 1.94 µM
  TGI: 3.58 µM
SNB-75 CNS
  GI50: 1.6 µM
  TGI: 2.97 µM
UACC-257 melanoma
  GI50: 1.9 µM
  TGI: 3.41 µM
HS 578T breast
  GI50: 2.26 µM
  TGI: 6.24 µM
U251 CNS
  GI50: 1.39 µM
  TGI: 2.89 µM
M14 melanoma
  GI50: 1.76 µM
  TGI: 3.18 µM
NCI-H226 lung
  GI50: 1.66 µM
  TGI: 3.23 µM
OVCAR-4 ovarian
  GI50: 1.18 µM
  TGI: 2.43 µM
SF-268 CNS
  GI50: 1.63 µM
  TGI: 3.13 µM

## Cn1cc(-c2nc(N[C@@H]3CCCC[C@@H]3N)c(F)c3c2C(=O)NC3)cn1
T-47D breast
  GI50: 24.8 µM and 33.7 µM
  TGI: 77.3 µM and > 96.6 µM
MALME-3M melanoma
  GI50: 11 µM and 9.57 µM
  TGI: 35.2 µM and 50.5 µM
SNB-75 CNS
  GI50: 2.14 µM and 2.87 µM
  TGI: 11.7 µM and 16.5 µM
UACC-257 melanoma
  GI50: 19.4 µM and 23.9 µM
  TGI: 98.6 µM and > 88.5 µM
HS 578T breast
  GI50: 5.95 µM and 6.14 µM
  TGI: 71 µM and 57.2 µM
U251 CNS
  GI50: 15.3 µM
  TGI: 33.9 µM and 36.3 µM
M14 melanoma
  GI50: 1.56 µM and 1.67 µM
  TGI: > 96.1 µM
NCI-H226 lung
  GI50: 2.93 µM and 3.83 µM
  TGI: 23.9 µM and 49.7 µM
OVCAR-4 ovarian
  GI50: 15.4 µM and 19.6 µM
  TGI: > 100 µM
SF-268 CNS
  GI50: 5.42 µM and 6.7 µM
  TGI: > 100 µM
